Patent US9950026B2, “Methods for reducing oxidative damage” (Cornell Research Foundation, Inc., priority 2004, dated 2018)
Entries after “also recorded” stand apart in the source; their conditions may differ. Where a SMILES comes first, the peptide text is derived from it. [ ]: non-standard residue; d: D form. Dmt = Cc1cc(O)cc(C)c1C[C@H](N)C(=O)O

Key:
N2A cells [1] = assay: Intracellular ROS (DCF fluorescence) in cells treated with tBHP; type: cell-based, murine; conditions: for EC50, reduction of intracellular ROS / intracellular ROS: tBHP 0.5 or 1 mM 40 min, then peptide 4 hr
Description: FIG. 22A-22C. […] (A) N2A cells were loaded with DCFDA, and then exposed to 100 μM tBHP alone, or with SS-31. Intracellular ROS was quantified by the formation of fluorescent DCF. Results shown are mean values (n=3). (B)(a-c) N2A cells were plated in glass bottom dishes and treated with 50 μM tBHP, alone or with 1 nM SS-31, for 6 h. Cells were loaded with DCFDA (10 μM) and imaged by confocal laser scanning microscopy using ex/em of 495/525 nm. (C) Effect of 1 nM SS-31 in reducing intracellular ROS induced by 50 μM tBHP (*P<0.001 compared to untreated cells; *P<0.05 compared to tBHP alone).
(§1) Cells were washed twice and replaced with medium alone or medium containing varying concentrations of SS-02 or SS-31 for 4 hr. Intracellular ROS was measured by carboxy-H2DCFDA (Molecular Probes, Portland, Oreg.). Cell death was assessed by a cell proliferation assay (MTS assay, Promega, Madison, Wis.).
Intracellular ROS was evaluated using the fluorescent probe DCFH-DA (5-(and -6)-carboxy-2′,7′-dichlorodihydrofluorescein diacetate). DCFH-DA enters cells passively and is then deacetylated to nonfluorescent DCFH. DCFH reacts with ROS to form DCF, the fluorescent product. N2A cells in 96 sell plates were washed with HBSS and loaded with 10 μM of DCFDA for 30 min. […]. at 37° C. Cells were washed 3 times with BSS and exposed to 0.1 mM of t-BHP, alone or with SS-31. The oxidation of DCF was monitored in real time by a fluorescence microplate reader (Molecular Devices) using 485 nm for excitation and 530 nm for emission.
N2A cells in glass bottom dish were treated with 0.1 mM t-BHP, alone or with 1 nM SS-31, for 6 h. Cells were then loaded with 10 μm of dichlorofluorescin (ex/em=485/530) for 30 min at 37° C., 5% CO2. Then cells were subjected 3 times wash with HBSS and stained with 20 nM of Mitotracker TMRM (ex/em=550/575 nm) for 15 min at 37° C. and examined by confocal laser scanning microscopy.

[2] = system: Human LDL (low density lipoprotein); assay: LDL oxidation induced by CuSO4 (conjugated dienes); type: biochemical; conditions: for rate of LDL oxidation (rate of formation of conjugated dienes): peptides 100 μM
Description: Human LDL (low density lipoprotein) was prepared fresh from stored plasma. LDL oxidation was induced catalytically by the addition of […] CuSO4, and the formation of conjugated dienes was monitored at […] for 5 h at 37° C. (B. Moosmann and C. Behl, Mol Pharmacol., 61, 260-268 (2002)).

[3] = Linoleic acid peroxidation induced by ABAP (conjugated dienes); conditions: for rate of linoleic acid peroxidation (slope of diene formation): peptides 100 μM
[4] = system: isolated guinea pig hearts; assay: HNE-modified proteins in isolated hearts, brief ischemia-reperfusion (Langendorff); conditions: 100 nM SS-02, 1 nM SS-31
Description: Isolated guinea pig hearts were perfused in a retrograde manner in a Langendorff apparatus and subjected to various intervals of ischemia-reperfusion. Hearts were then fixed immediately and embedded in paraffin. Immunohistochemical analysis of 4-hydroxy-2-nonenol (HNE)-modified proteins in the paraffin sections was carried out using an anti-HNE antibody.
(A) Immunohistochemical analysis of 4-hydroxy-2-nonenol (HNE)-modified proteins in paraffin sections from guinea pig hearts aerobically perfused 30 min with (a) buffer; (b) 100 nM SS-02; (c) 100 nM SS-20 and (d) 1 nM SS-31, then subjected to 30 min ischemia and reperfused for 90 min with same peptides. Tissue slices were incubated with […] antibody. (e) Background control: staining without primary antibody.
(B) Immunohistochemical analysis of HNE-modified proteins in paraffin sections from guinea pig hearts aerobically perfused 30 min with buffer; then subjected to 30 min ischemia and reperfused with (a) buffer; (b) 100 nM SS-02; (c) 100 nM SS-20 and (d) 1 nM SS-31 for 90 min with same peptides. Tissue slices were incubated with anti-HNE antibody. (e) Background control staining without primary antibody.

N2A cells [5] = assay: Cell viability, MTS assay, cells treated with tBHP; type: cell-based, murine; conditions: for EC50, increase of cell survival / cell survival (MTS): tBHP 0.5 or 1 mM 40 min, then peptide 4 hr
Description: as §1
Neuronal N2A and SH-SY5Y cells were plated in 96-well plate at a density of 1×10^4/well and allowed to grow for 2 days before treatment with t-butyl hydroperoxide (tBHP) (0.05-0.1 mM) with or without SS-31 (10^−12 M to 10^−9 M for 24 h. Cell death was assessed by a cell proliferation assay (MTS assay, Promega, Madison, Wis.).

[6] = system: isolated mouse liver mitochondria; assay: H2O2 production by isolated mitochondria, luminol chemiluminescence; type: biochemical; conditions: for amount of H2O2 generated (AUC over 20 min): spontaneous, SS peptides 100 μM
Description: Because mitochondria are a major source of ROS production, the effect of SS-02 on H2O2 formation in isolated mitochondria under basal conditions as well as after treatment with antimycin, a complex III inhibitor was examined. Livers were harvested from mice and homogenized in ice-cold buffer and centrifuged at 13800×g for 10 m. The pellet was washed once and then re-suspended in 0.3 ml of wash butter and placed on ice until use H2O2 was measured using luminol chemiluminescence as described previously (Y. Li, H. Zhu, M. A. Trush, Biochim. Biophys. Acta 1428, 1-12 (1999)). 0.1 mg mitochondrial protein was added to 0.5 ml potassium phosphate buffer (100 mM, pH 8.0) in the absence or presence of SS peptides (100 μM). 25 mM luminol and 0.7 IU horseradish peroxidase were added, and chemilumunescence was monitored with a Chronolog Model 560 aggregometer (Havertown, Pa.) for 20 min at 37° C. The amount of H2O2 produced was quantified as the area under the curve (AUC) over 20 min, and all data were normalized to AUC produced by mitochondria alone.
H2O2 was measured using luminol chemiluminescence as described previously (Y, Li, H. Zhu, M. A. Trush, Biochim. Biophys. Acta 1428, 1-12 (1999)). 0.1 mg mitochondrial protein was added to 0.5 ml potassium phosphate buffer (100 mM, pH 8.0) in the absence or presence of SS-31. 25 mM luminol and 0.7 IU horseradish peroxidase were added, and chemilumunescence was monitored with a Chronolog Model 560 aggregometer (Havertown, Pa.) for 20 min at 37° C. The amount of H2O2 produced was quantified as the area under the curve (AUC) over 20 min, and all data were normalized to AUC produced by mitochondria alone.

[7] = peptide only during 90 min reperfusion
[8] = peptide perfused 30 min before 30 min ischemia and during 90 min reperfusion

Compound	DCF fluorescence (fluorescent microscopy) (N2A cells [1]; 50 μM tBHP, 1 nM SS-31, 6 h)	reduction of ROS production (N2A cells [1]; 100 μM tBHP, 1 nM SS-31) [%]	rate of ROS accumulation/production (N2A cells [1]; 0.1 mM (100 μM) t-BHP, over 4 h)	ROS accumulation (DCF fluorescence, confocal) (N2A cells [1]; 0.1 mM t-BHP, 1 nM SS-31, 6 h)	EC50, reduction of intracellular ROS (N2A cells [1])	intracellular ROS (N2A cells [1])	rate of LDL oxidation (rate of formation of conjugated dienes) [2]	rate of linoleic acid peroxidation (slope of diene formation) [3]	lipid peroxidation (HNE-modified proteins) [4, 7]	lipid peroxidation (HNE-modified proteins) [4, 8]	concentration achieving complete protection against t-BHP (N2A cells [5]; t-BHP 0.05-0.1 mM, 24 h) [nM]	t-BHP-induced cytotoxicity (N2A cells [5]; t-BHP 0.05-0.1 mM, 24 h, concurrent treatment)	EC50, increase of cell survival (N2A cells [5])	cell survival (MTS) (N2A cells [5])	production of H2O2 induced by antimycin ([6]; dose response)	spontaneous production of H2O2 ([6]; dose response)	amount of H2O2 generated (AUC over 20 min) [6]	rate of LDL oxidation ([2]; varying concentrations, 10 mM CuSO4)	peroxidation of linoleic acid ([3]; varying concentrations)
Cc1cc(O)cc(C)c1C[C@H](NC(=O)[C@H](N)CCCNC(=N)N)C(=O)N[C@@H](CCCCN)C(=O)N[C@@H](Cc1ccccc1)C(N)=O [SS-31, D-Arg-2′6′-Dmt-Lys-Phe-NH2] (H-[dR][Dmt]KF-NH2; N-terminus assumed)	significantly reduced	> 50	dose-dependently inhibited; also recorded: dose-dependently reduced	reduced ROS accumulation	nM range	dose-dependently reduced intracellular ROS	reduced rate of LDL oxidation	reduced the rate of linoleic acid peroxidation	reduced lipid peroxidation	reduced lipid peroxidation	1	dose-dependent reduction	nM range	increased cell survival	dose-dependently reduced	dose-dependently reduced	significantly reduced		
2′,6′-Dmt-Arg-Phe-Lys-NH2 [SS-02]					nM range	dose-dependently reduced intracellular ROS	reduced rate of LDL oxidation	reduced the rate of linoleic acid peroxidation	reduced lipid peroxidation	reduced lipid peroxidation			nM range	increased cell survival			significantly reduced	dose-dependently inhibited	dose-dependently inhibited
